The subject of one assay is P2X7 receptor. Description: Bead-standardized whole blood/PBMC monocyte P2X7 pore assay with PI exclusion of nonviable cells. Conditions: for BzATP Stimulated YO-PRO-1 measurement, Mean: viable monocytes. It is filed as cell-based, human. The protocol: PBMC Isolation. Six mLs of citrate-treated blood was underlayed with three mLs of Lymphoprep (Axis-Sheild, Oslo, Norway) and centrifuged at 800 g for 30 minutes at room temperature. The cellular interface was collected and washed twice with sterile phosphate-buffered saline (PBS). Cells were counted and assayed for pore activity as described below.
Sample Preparation. Although all leukocytes studied to date express P2X7, monocytes were selected as the cell population to screen because of the greater sensitivity of pore function noted between individuals participating in a small study with forty-five healthy subjects (5, 34). Staining procedures were as previously described (10, 14, 34). Briefly, aliquots of citrated whole blood ([…]) were washed twice in HEPES-buffered saline (HBS; 130 mM NaCl, 5 mM KCl, 20 mM HEPES pH 7.4, 0.1% bovine serum albumin, 10 mM glucose; components purchased at Sigma, St. Louis, Mo.) and resuspended in the original 500 L volume. A 10 μL aliquot of anti-human CD14 antibody conjugated to phycoerythrin (CD14-PE, 50 μg/mL; BD Biosciences, San Diego, Calif.) was added to each sample and incubated at room temperature for 20 min. The cells were washed twice in a potassium glutamate buffer (130 mM potassium glutamate, 5 mM KCl, 20 mM HEPES pH 7.4, 0.1% bovine serum albumin, 10 mM glucose; components from Sigma) to maximize the differences between high and low pore activities (17).
Samples were adjusted to 10 mM magnesium chloride, washed in HEPES-buffered saline and diluted to a volume of 2.5 mL in HBS. These latter steps have been previously shown to close the pore rapidly allowing for kinetic precision in a large clinical study (10, 34). For the methods described here, including all the samples from the MIA trial (Table 3), propidium iodide (PI; 5 μg/mL) was added to each sample and incubated for 15 min prior to sample acquisition using flow cytometry as described below.
Determination of Instrument Settings and Calculation of Spectral Overlap. All instruments in the facility are cleaned daily and assessed for laser alignment, photomultiplier tube (PMT) performance, linearity and noise. All fluorochromes were excited with a 488 nm laser and the following filter sets were used in all flow cytometers: a BP 530/30 for YO-PRO-1, a BP 585/42 for PE and a LP 670 for propidium iodide. Experiments were performed on FACScan, FACSCalibur, and LSR II flow cytometers (Becton Dickinson, San Jose, Calif.) in conjunction with the CellQuest, CellQuestPro, FACSDiva acquisition and analysis software programs (v. 3.3, v. 4.0, and v. 5.0.1, respectively; Becton Dickinson).
Previously, pore activity was measured on a FACScan flow cytometer (Becton Dickinson, San Jose, Calif.) using recalled instrument settings: YO-PRO-1 at 410 mV, PE at 412 mV, acquisition threshold for PE at 324 mV, and PE-32.6% YO-PRO-1 compensation (10). To facilitate comparisons across instrument platforms and among laboratories, we used these recalled settings as a template to adapt desired PMT voltages for SpheroTM Rainbow fluorescent particles (mid-range 3.0-3.4 μm; Sperotech, Lake Forest Ill.), corresponding data shown in FIG. 15. Rainbow particles have a very stable fluorescence and can be stored and used over a long period of time, allowing the intensities of these particles in each fluorescent detector to serve as target values for determining the voltages applied to each PMT for all of the cytometers used.
The same target values were used for the analog instruments, FACScan and FACSCalibur (BD Biosciences, San Jose, Calif.) because these instruments process fluorescence signals in the same way and the intensities determined were very close (data not shown). The LSR II (BD Biosciences, San Jose, Calif.) uses digital processing and fluorescence is collected and sampled differently so a second set of target values using these same samples was determined for each color detector on this cytometer. […]

The next assay deals with T1, P2X7 (Homo sapiens, UniProt Q99572).
T1 construct: host or cells: astrocytoma cell line (the earlier reading names it 1321N1)
T1 sequence (Q99572 1-595): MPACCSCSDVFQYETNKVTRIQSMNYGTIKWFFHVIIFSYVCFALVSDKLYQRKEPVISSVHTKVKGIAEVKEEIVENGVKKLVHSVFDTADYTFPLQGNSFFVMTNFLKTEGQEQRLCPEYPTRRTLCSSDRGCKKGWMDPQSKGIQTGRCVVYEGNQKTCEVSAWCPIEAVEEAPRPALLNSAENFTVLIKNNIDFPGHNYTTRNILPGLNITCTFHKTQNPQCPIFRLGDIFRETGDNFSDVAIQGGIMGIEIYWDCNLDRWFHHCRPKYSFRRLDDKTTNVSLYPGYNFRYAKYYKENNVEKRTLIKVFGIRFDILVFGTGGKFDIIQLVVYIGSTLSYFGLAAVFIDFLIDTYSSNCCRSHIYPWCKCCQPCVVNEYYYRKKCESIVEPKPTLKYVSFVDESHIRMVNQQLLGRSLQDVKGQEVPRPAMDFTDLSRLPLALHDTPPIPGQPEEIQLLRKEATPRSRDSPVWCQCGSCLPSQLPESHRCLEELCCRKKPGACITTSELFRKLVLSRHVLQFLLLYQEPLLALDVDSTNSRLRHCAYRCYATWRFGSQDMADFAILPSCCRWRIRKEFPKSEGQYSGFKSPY
As to the kind of experiment: YO-PRO-1 plate assay of P2X7 agonists with astrocytoma cell line 1321N1.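 As to all read-outs here: dye uptake read after 20 min agonist exposure with YO-PRO-1 present, unbound dye removed by washing before reading in a fluorescence plate reader.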 It is filed as cell-based. Conditions: for YO-PRO-1 fluorescence (485/20, 528/20), single well: 5 × 10^4 1321N1 cells; for YO-PRO-1 fluorescence, average of duplicate wells: 1321N1 cells, agent + YOPRO.

Values joined by “and” are separate entries in the source; they are usually repeats but may differ in a detail not shown here. Equal entries are not always repeated.

As to “2′-3′-O-(4-benzoylbenzoyl)-adenosine 5′-triphosphate [Bz-ATP]”, the “BzATP Stimulated median YO-PRO-1 fluorescence” value in the assay with P2X7 receptor (Ficoll prep PBMC, A, Bead-Adjusted compensation) was determined as 292; in the assay with P2X7 receptor (Whole blood, A, Bead-Adjusted compensation), 276; in the assay on P2X7 receptor (Whole blood, B, Uncompensated), 30.7; in the assay on P2X7 receptor (Whole blood, B, YO-PRO-PE Set at 2%), 27.4; with P2X7 receptor (Whole blood, C, Uncompensated), 1071; in the assay with P2X7 receptor (Whole blood, C, YO-PRO-PE Set at 2%), 1067. Also, the “BzATP Stimulated YO-PRO-1 measurement, Mean” value with P2X7 receptor (Low Responder donor, Bead Adjusted PMT method) is 30.1; in the assay on P2X7 receptor (Low Responder donor, Recalled PMT method), 30.0; in the assay with P2X7 receptor (Normal Responder donor, Bead Adjusted PMT method), 1019.0; with P2X7 receptor (Normal Responder donor, Recalled PMT method), 983.0. Besides, the “YO-PRO-1 fluorescence (485/20, 528/20), single well” value at P2X7 (agent 1 μM + YOPRO) is 98 and 89; at P2X7 (agent 3 μM + YOPRO), 188; at P2X7 (agent 10 μM + YOPRO) it was 213; at P2X7 (agent 30 μM + YOPRO), 217; at P2X7 (agent 100 μM + YOPRO) it was 223 and 214; at P2X7 (agent 300 μM + YOPRO), 220 and 232. For the same substance, the “YO-PRO-1 fluorescence, average of duplicate wells” value at P2X7 (1 uM) is 93.5; at P2X7 (3 uM), 188.

The record behind these values is patent US7960131B2, “Functional genomic pore assay for mixed cell populations” (Wisconsin Alumni Research Foundation, priority 2003, dated 2011).
